This is an account of results in patent publication US6884810B2, “Benzimidazole derivatives” (Zeria Pharmaceutical Co., Ltd., priority 2001, dated 2005).

One may read the ED50 as the dose that gives a 50% effect, or the effect in half of the subjects.

Each structure is given as a SMILES string.

The first experiment relates to gastric acid secreted under stimulation with histamine. The experiment can be described thus: Gastric acid secretion inhibition action, histamine-stimulated, acute Fistula method. Format: in vivo, Sprague-Dawley (SD) rats. As to conditions: Rattus norvegicus, SD rats, administered in the duodenum; histamine 8 mg/kg/h; total acid discharge at 3, 4 and 5 hours; Probit method. As for the experimental part:
(Gastric Acid Secretion Inhibition Action)
(1) Test Animals Employed were Sprague-Dawley (SD) Rats (7 Weeks Old, Male) Purchased from Charles River Japan, Inc. Before the Test, the Rats Were Fed for 5 Days or More.
Each test drug was suspended in, or dissolved in, 0.5% sodium carboxymethylcellulose solution, whereby a suspension or solution was prepared so as to attain 2.5 mL/kg.
(2) Measurement of Gastric Acid Secretion
The amount of gastric acid secreted under stimulation with histamine was measured on the rats fasted for 18 hours by use of the acute Fistula method as described by Hiramatsu et al. (Dig. Dis. Sci.,39, 689-697(1994)). Briefly, each rat was etherized lightly, and then a winged tubular needle filled with 3.8% citric acid solution was indwelled in the tail vein of the rat. The abdomen of the rat was opened, and the pyloric part of the stomach was ligated. Subsequently, a small hole was made in the duodenum, and the abdomen of the rat was closed with a feeding tube filled with saline indwelled. The inside of the stomach was washed with saline, a polyethylene-made Fistula tube (inner diameter: 4 mm) was set in the anterior stomach, and the cut portion of the anterior stomach was ligated and secured. The stomach and the duodenum were returned to the abdominal cavity, with the Fistula tube and the feeding tube exposed outside. The rat was placed in a Ballman cage II. Histamine was continuously administered through the winged injection needle which had been indwelled in the tail vein in advance (8 mg/kg/h, 1.38 mL/h). 15 Minutes thereafter, gastric juice of the rat was collected. Subsequently, collection of gastric juice was performed every one hour. Each time, the amount of the collected gastric juice was recorded, followed by titration with NaOH (0.1 mol/L) up to the end point pH 7.0. From the volume consumed for titration, acidity was calculated. The acid discharge amount was calculated as a product of the amount of the gastric juice and the acidity. Before starting the test, the rats were grouped so that the intra-group total amount of the gastric juice samples initially collected was the same between groups. Thereafter, each test drug was administered (2.5 mL/kg) in the duodenum through a feeding tube which had been attached to the duodenum in advance. To each rat of a control group, 0.5% Na-CMC solution was administered.
(3) Analysis of the Results
The data as obtained above are shown by way of mean±standard error. Total amount of acid discharge was obtained through summation of the amounts of acid discharge at three points in time; i.e., 3, 4 and 5 hours after initial collection of gastric juice. Percent inhibition of each group was computed from the total acid discharge amount of the control group and that of each group. On the basis of the percent inhibition calculated for each group, 50% effective dose (ED50) was computed by use of the Probit method.
On to `COCCCOc1ccnc(C[S+]([O-])c2nc3ccccc3[nH]2)c1C` (stereo not drawn) [rabeprazole, reference compound], for which the ED50 came to 2.5 mg/kg. The same measure, in the same setting: in the case of `Cc1c(OCC(F)(F)F)ccnc1C[S+]([O-])c1nc2ccccc2[nH]1` (stereo not drawn) [lansoprazole, reference compound] it was 1.1 mg/kg; in that of `COc1ccnc(C[S+]([O-])c2nc3ccc(OC(F)F)cc3[nH]2)c1OC` (stereo not drawn) [pantoprazole, reference compound], 0.34 mg/kg. The same measure, in the same setting: in the case of `[O-][S+](Cc1cc(OCCCC(F)(F)F)ccn1)c1nc2ccccc2[nH]1` (stereo not drawn) [Example 9(3), 2-[4-(4,4,4-trifluorobutoxy)pyridin-2-yl-methanesulfinyl]-1H-benzimidazole] it was 0.32 mg/kg; in that of `COc1ccc2nc([S@@+]([O-])Cc3ncc(C)c(OC)c3C)[nH]c2c1` [esomeprazole, reference compound], 2.9 mg/kg. Still for that read-out and setting: with `COc1c(OCCOCC(F)(F)F)ccnc1C[S+]([O-])c1nc2ccccc2[nH]1` (stereo not drawn) [Example 2(2), 2-{3-methoxy-4-[2-(2,2,2-trifluoroethoxy)ethoxy]pyridin-2-yl-methylsulfinyl}-1H-benzimidazole] the figure was 1.9 mg/kg; with `COc1ccc2[nH]c([S+]([O-])Cc3ncc(C)c(OC)c3C)nc2c1` (stereo not drawn) [omeprazole, reference compound], 3.6 mg/kg; with `[O-][S+](Cc1cc(OCCCC(F)(F)F)ccn1)c1nc2ccccc2[nH]1` (single isomer, unassigned; (-)) [Example 10(2), (−)-2-[4-(4,4,4-trifluorobutoxy)pyridin-2-yl-methanesulfinyl]-1H-benzimidazole], 0.97 mg/kg. Regarding `COc1c(OCCCC(F)(F)F)ccnc1C[S+]([O-])c1nc2ccccc2[nH]1` (stereo not drawn) [Example 1(2), 2-[3-methoxy-4-(4,4,4-trifluorobutoxy)pyridin-2-yl-methylsulfinyl]-1H-benzimidazole], it took a dose of 1.3 mg/kg to reach the 50% effect level (ED50). On the same count and under the same terms, in the case of `[O-][S+](Cc1cc(OCCOCC(F)(F)F)ccn1)c1nc2ccccc2[nH]1` (single isomer, unassigned; (-)) [Example 13(3), (−)-2-{4-[2-(2,2,2-trifluoroethoxy)ethoxy]pyridin-2-yl-methanesulfinyl}-1H-benzimidazole] it was 0.59 mg/kg. `COc1c(OCCOCC(F)(F)F)ccnc1C[S+]([O-])c1nc2ccccc2[nH]1` (single isomer, unassigned; (+)) [Example 3(2), (+)-2-{3-methoxy-4-[2-(2,2,2-trifluoroethoxy)ethoxy]pyridin-2-yl-methylsulfinyl}-1H-benzimidazole] had an ED50 of 2.2 mg/kg.

Still in this experiment, the particulars now being: SD rats, administered in the duodenum; histamine 8 mg/kg/h; total acid discharge at 3, 4 and 5 hours; Probit method.
`COc1c(OCCCC(F)(F)F)ccnc1C[S+]([O-])c1nc2ccccc2[nH]1` (single isomer, unassigned; (-)) [Example 6(1), (−)-2-[3-methoxy-4-(4,4,4-trifluorobutoxy)pyridin-2-yl-methanesulfinyl]-1H-benzimidazole]: the “Gastric-acid secretion inhibition action [ED50 (mg/kg)]” value was found to be 1.4 mg/kg.
